From patent US10526337B2, “Heteroaryl derivative or pharmaceutically acceptable salt thereof, preparation method therefor, and pharmaceutical composition for preventing or treating diseases associated with PI3 kinases, containing same as active ingredient” (KOREA RESEARCH INSTITUTE OF CHEMICAL TECHNOLOGY, priority 2015, dated 2020)

Experiments:
[1] = target: T1, PI3 Kinase (p110δ/p85α) (h) (Homo sapiens, UniProt O00329); test: Inhibition of phosphatidylinositol 3-kinase delta (PI3K δ), pAkt Western blotting in IgM-stimulated Raji cells; type: cell-based; settings: ATP=10 uM, sample concentration=100 nM
T1 construct: endogenous in cells; host or cells: Raji
Experimental: (§1) The stimulated cells were transferred in a 1.5 mL tube, followed by centrifugation at 3000 rpm for 1 minute. 100 μL of RIPA buffer (radioimmunoprecipitation assay buffer, 50 mM Tris-HCl, 5 mM EDTA, 150 mM NaCl, 1% NP-40, 1 mM PMSF, pH 8.0; ELPIS, Korea) was added thereto, which was stored in a 4° C. refrigerator for 12 hours. Centrifugation was performed at 4° C. at 14,000 rpm for 20 minutes. The supernatant was transferred into a new 1.5 mL tube. Protein was quantified by BCA (bicinchoninic acid) method and samples were prepared. The composition of the sample was as follows: sample buffer (ELPIS, EBA-1052) 5×, protein 10 μg, and 1× sample buffer to make the total volume 20 μL. The sample was heated at 100° C. for 5 minutes. The evaporated water vapor was condensed in a refrigerator. The liquid stained on the wall was fallen down by centrifugation for a few seconds. The sample proceeded to 10% SDS (Sodium Dodecyl Sulfate) acrylamide gel for separation. The separated protein was transferred onto PVDF (poly-vinyl difluoride) membrane, followed by reaction with pAkt (phospho protein kinase B) antibody (Ser473 or Thr308; Cell signaling, 9271s or 13038s) for 12 hours at 4° C. The membrane was washed with TBST (Tris-Buffered Saline with Tween 20, 10 mM Tris-HCl, pH 7.5, 150 mM NaCl, 0.1% Tween-20) three times for 5 minutes each, to which the secondary antibody (rabbit antibody, Santacruz, sc-2004) was added, followed by reaction at room temperature for 2 hours. The membrane was washed with TBST three times for 10 minutes each, to which ECL (enhanced chemiluminescence, Thermo, NCI34095KR) was sprayed. Bands were investigated by using LAS-3000.
The inhibition of phosphatidylinositol 3 kinase delta (PI3K δ) by those compounds prepared in Examples 1˜98 was investigated by the following experiment. The inhibition activity of each compound was measured in the following conditions: ATP=10 uM, and sample concentration=100 nM.
(§2) Raji cells cultured in RPMI1640 (Hyclone, SH30027.02) supplemented with 10% fetal bovine serum (Hyclon, USA) were distributed in a 12-well plate at the density of 1,000,000 cells/well. The cells were stabilized in a 37° C. CO2 for 24 hours and then treated with each compound for 1 and half hours. The cells were treated with 0.25 μg/mL of IgM (immunoglobulin M, Southern Biotech, USA) to increase the intracellular activity of PI3K delta. 30 minutes later, the medium was discarded and the cells were washed with cold PBS (phosphate buffered saline, Gibco, 14190-250). PBS was then eliminated completely by using a pipette. Western blotting was performed according to the same manner as described in step 2 of Experimental Example 1 to evaluate the intracellular PI3K delta activity.

PI3 Kinase (p120γ) (h) = target: T2, PI3 Kinase (p120γ) (h) (Homo sapiens, UniProt P48736); test: Inhibition of phosphatidylinositol 3-kinase gamma (PI3K γ), pAkt Western blotting in C5a-stimulated RAW264.7 macrophages; type: cell-based, mouse; settings: ATP=10 uM, sample concentration=100 nM
T2 construct: endogenous in cells; host or cells: RAW264.7
Experimental: as §1
The inhibition of phosphatidylinositol 3 kinase gamma (PI3K γ) by those compounds prepared in Examples 1˜98 was investigated by the following experiment. The inhibition activity of each compound was measured in the following conditions: ATP=10 uM, and sample concentration=100 nM.
as §2, with “Macrophages (RAW264.7)” for “Raji cells”, “DMEM (Dulbecco's Modified Eagle Medium, Hyclon, SH30243.01)” for “RPMI1640 (Hyclone, SH30027.02)”, “10 ng/mL” for “0.25 μg/mL”, “C5a (complement component 5a, 10 μg/mL; R&D, 2150-C5)” for “IgM (immunoglobulin M, Southern Biotech, USA)”, “gamma. 5” for “delta. 30”, “gamma” for “delta”

T2 sequence (P48736 whole entry): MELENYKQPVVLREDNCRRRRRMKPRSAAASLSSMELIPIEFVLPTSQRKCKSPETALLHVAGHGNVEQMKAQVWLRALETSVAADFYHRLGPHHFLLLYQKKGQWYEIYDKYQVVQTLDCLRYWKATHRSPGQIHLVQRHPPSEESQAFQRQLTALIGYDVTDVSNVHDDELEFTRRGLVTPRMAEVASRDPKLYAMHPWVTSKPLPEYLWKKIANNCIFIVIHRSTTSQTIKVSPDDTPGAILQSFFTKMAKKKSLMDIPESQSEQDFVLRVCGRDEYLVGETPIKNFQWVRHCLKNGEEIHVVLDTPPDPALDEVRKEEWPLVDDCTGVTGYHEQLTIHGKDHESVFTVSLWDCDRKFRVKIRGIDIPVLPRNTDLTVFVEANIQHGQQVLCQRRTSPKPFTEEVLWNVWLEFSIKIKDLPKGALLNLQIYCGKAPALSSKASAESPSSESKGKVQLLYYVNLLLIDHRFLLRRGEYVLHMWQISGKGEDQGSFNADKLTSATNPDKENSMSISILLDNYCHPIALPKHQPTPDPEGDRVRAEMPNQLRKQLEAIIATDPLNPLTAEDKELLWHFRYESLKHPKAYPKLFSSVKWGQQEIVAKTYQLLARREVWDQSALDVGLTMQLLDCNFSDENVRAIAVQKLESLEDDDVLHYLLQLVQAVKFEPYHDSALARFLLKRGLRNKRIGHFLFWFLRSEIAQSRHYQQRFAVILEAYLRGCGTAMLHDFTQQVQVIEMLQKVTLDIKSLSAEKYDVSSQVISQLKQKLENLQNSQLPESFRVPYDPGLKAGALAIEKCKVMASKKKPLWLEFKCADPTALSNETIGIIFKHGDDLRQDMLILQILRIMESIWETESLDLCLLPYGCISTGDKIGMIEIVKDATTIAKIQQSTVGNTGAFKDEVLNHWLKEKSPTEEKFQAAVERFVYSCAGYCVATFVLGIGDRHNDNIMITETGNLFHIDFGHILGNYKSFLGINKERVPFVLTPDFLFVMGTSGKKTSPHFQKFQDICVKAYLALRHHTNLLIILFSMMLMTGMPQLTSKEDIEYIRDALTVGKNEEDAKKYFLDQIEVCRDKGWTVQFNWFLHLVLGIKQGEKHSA
T1 sequence (O00329 whole entry): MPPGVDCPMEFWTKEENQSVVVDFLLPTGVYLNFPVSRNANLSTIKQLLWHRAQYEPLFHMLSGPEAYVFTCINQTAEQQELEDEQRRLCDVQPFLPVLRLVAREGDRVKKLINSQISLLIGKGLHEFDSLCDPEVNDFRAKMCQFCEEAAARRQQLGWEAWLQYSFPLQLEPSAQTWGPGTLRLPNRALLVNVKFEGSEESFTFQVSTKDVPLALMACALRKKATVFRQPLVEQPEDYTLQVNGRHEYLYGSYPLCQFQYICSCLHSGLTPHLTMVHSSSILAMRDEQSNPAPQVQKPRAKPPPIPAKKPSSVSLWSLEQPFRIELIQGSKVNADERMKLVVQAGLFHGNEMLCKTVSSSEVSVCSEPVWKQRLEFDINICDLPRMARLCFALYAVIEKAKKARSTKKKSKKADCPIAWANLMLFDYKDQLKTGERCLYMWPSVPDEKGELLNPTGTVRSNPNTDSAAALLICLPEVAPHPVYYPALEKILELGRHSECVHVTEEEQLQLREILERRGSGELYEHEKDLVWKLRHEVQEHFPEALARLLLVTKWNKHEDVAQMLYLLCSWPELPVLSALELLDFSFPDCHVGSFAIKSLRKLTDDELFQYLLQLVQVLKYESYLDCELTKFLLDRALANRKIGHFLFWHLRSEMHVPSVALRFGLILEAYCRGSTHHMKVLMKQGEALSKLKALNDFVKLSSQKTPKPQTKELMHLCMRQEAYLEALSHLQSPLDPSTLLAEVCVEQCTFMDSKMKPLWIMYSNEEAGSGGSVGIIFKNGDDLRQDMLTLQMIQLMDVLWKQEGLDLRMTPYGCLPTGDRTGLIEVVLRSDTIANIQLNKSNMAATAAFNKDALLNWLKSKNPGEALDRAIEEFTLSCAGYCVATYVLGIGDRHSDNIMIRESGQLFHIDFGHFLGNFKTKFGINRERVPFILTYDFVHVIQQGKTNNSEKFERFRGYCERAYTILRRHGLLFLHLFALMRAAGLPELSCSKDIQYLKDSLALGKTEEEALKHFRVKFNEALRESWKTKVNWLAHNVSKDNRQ
T1 sequence (P27986 whole entry partner): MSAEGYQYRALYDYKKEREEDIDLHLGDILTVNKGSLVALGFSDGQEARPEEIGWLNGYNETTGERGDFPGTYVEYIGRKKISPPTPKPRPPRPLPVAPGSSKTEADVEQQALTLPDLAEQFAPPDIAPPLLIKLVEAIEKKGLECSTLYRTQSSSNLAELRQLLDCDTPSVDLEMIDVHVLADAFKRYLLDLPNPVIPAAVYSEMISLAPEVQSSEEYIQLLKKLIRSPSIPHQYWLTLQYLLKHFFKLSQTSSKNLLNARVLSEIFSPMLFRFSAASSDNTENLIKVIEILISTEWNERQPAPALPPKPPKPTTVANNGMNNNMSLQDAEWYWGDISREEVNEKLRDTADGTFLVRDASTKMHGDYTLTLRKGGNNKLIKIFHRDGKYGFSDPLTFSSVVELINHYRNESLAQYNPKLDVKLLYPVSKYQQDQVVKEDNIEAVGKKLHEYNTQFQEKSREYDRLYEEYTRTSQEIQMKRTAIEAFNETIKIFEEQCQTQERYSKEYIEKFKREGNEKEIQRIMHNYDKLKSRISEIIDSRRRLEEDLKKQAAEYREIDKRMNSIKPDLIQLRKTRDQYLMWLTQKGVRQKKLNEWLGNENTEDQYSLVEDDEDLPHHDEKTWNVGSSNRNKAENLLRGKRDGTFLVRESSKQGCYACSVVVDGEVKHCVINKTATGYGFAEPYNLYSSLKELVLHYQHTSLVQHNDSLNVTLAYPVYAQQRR

| SMILES | IC50 [1] | IC50 (PI3 Kinase (p120γ) (h)) |
| --- | --- | --- |
| CC[C@H](Nc1nc(N)nc2[nH]cnc(=O)c12)c1nc2cccc(F)c2c(=O)n1-c1ccccc1 [Example 89, (S)-7-amino-5-((1-(5-fluoro-4-oxo-3-phenyl-3,4-dihydroquinazoline-2-yl)propyl)amino)pyrimido[4,5-d]pyrimidine-4(1H)-one] | 10 to 500 nM | 10 to 500 nM |
| C[C@H](Nc1ncnc2c1C(=O)N(C)CN2)c1nc2cccc(Cl)c2c(=O)n1-c1cccnc1 [Example 35, (S)-5-((1-(5-chloro-4-oxo-3-(pyridine-3-yl)-3,4-dihydroquinazoline-2-yl)ethyl)amino)-3-methyl-2,3-dihydropyrimido[4,5-d]pyrimidine-4(1H)-one] | 10 to 500 nM | 10 to 500 nM |
| C[C@H](Nc1nc(N)nc2[nH]cnc(=O)c12)c1nc2cccc(Cl)c2c(=O)n1-c1cccnc1 [Example 82, (S)-7-amino-5-((1-(5-chloro-4-oxo-3-(pyridine-3-yl)-3,4-dihydroquinazoline-2-yl)ethyl)amino)pyrimido[4,5-d]pyrimidine-4(1H)-one] | 10 to 500 nM | 10 to 500 nM |
| CN1CNc2ncnc(N3CCC[C@H]3c3nn4ccc(Cl)c4c(=O)n3-c3ccccc3)c2C1=O [Example 47, (S)-5-(2-(5-chloro-4-oxo-3-phenyl-3,4-dihydropyrrolo[2,1-f][1,2,4]triazine-2-yl)pyrrolidine-1-yl)-3-methyl-2,3-dihydropyrimido[4,5-d]pyrimidine-4(1H)-one] | 10 to 500 nM | 10 to 500 nM |
| Nc1nc(N2CCC[C@H]2c2nn3ccc(Cl)c3c(=O)n2-c2cccc(F)c2)c2c(=O)nc[nH]c2n1 [Example 96, (S)-7-amino-5-(2-(5-chloro-3-(3-fluorophenyl)-4-oxo-3,4-dihydropyrrolo[2,1-f][1,2,4]triazine-2-yl)pyrrolidine-1-yl)pyrimido[4,5-d]pyrimidine-4(1H)-one] | > 500 nM | > 500 nM |
| Cc1cccc(-n2c([C@@H]3CCCN3c3nc(N)nc4c3C(=O)N(C)CN4)nc3cccc(Cl)c3c2=O)c1 [Example 58, (S)-7-amino-5-(2-(5-chloro-4-oxo-3-(m-tolyl)-3,4-dihydroquinazoline-2-yl)pyrrolidine-1-yl)-3-methyl-2,3-dihydropyrimido[4,5-d]pyrimidine-4(1H)-one] | > 500 nM | > 500 nM |
| C[C@H](Nc1ncnc2[nH]cnc(=O)c12)c1nn2ccc(Cl)c2c(=O)n1-c1ccccc1 [Example 71, (S)-5-((1-(5-chloro-4-oxo-3-phenyl-3,4-dihydropyrrolo[2,1-f][1,2,4]triazine-2-yl)ethyl)amino)pyrimido[4,5-d]pyrimidine-4(1H)-one] | 10 to 500 nM | > 500 nM |
| C[C@H](Nc1nc(N)nc2c1C(=O)N(C)CN2)c1cc2cccc(Cl)c2c(=O)n1-c1ccccc1 [Example 52, (S)-7-amino-5-((1-(8-chloro-1-oxo-2-phenyl-1,2-dihydroisoquinoline-3-yl)ethyl)amino)-3-methyl-2,3-dihydropyrimido[4,5-d]pyrimidine-4(1H)-one] | < 10 nM | < 10 nM |
| CN1CNc2nc(N)nc(N3CCC[C@H]3c3nc4cccc(Cl)c4c(=O)n3-c3ccccc3)c2C1=O [Example 55, (S)-7-amino-5-(2-(5-chloro-4-oxo-3-phenyl-3,4-dihydroquinazoline-2-yl)pyrrolidine-1-yl)-3-methyl-2,3-dihydropyrimido[4,5-d]pyrimidine-4(1H)-one] | 10 to 500 nM | 10 to 500 nM |
| C[C@H](Nc1ncnc2[nH]cnc(=O)c12)c1cc2ccccc2nc1-c1ccccc1 [Example 72, (S)-5-((1-(2-phenylquinoline-3-yl)ethyl)amino)pyrimido[4,5-d]pyrimidine-4(1H)-one] | > 500 nM | > 500 nM |
| Cc1cccc(-n2c([C@H](C)Nc3nc(N)nc4[nH]cnc(=O)c34)nc3cccc(Cl)c3c2=O)c1 [Example 84, (S)-7-amino-5-((1-(5-chloro-4-oxo-3-(m-tolyl)-3,4-dihydroquinazoline-2-yl)ethyl)amino)pyrimido[4,5-d]pyrimidine-4(1H)-one] | 10 to 500 nM | 10 to 500 nM |
| C[C@H](Nc1ncnc2[nH]ccc(=O)c12)c1nc2ccc(F)cc2c(=O)n1Cc1ccccn1 [Example 32, (S)-4-((1-(6-fluoro-4-oxo-3-(pyridine-2-ylmethyl)-3,4-dihydroquinazoline-2-yl)ethyl)amino)pyrido[2,3-d]pyrimidine-5(8H)-one] | > 500 nM |  |

Other lines, results leading:

| IC50 [1] | IC50 (PI3 Kinase (p120γ) (h)) | SMILES |
| --- | --- | --- |
| > 500 nM | > 500 nM | Nc1nc(N2CCC[C@H]2c2nc3cccc(Cl)c3c(=O)n2-c2ccccc2)c2c(=O)nc[nH]c2n1 [Example 90, (S)-7-amino-5-(2-(5-chloro-4-oxo-3-phenyl-3,4-dihydroquinazoline-2-yl)pyrrolidine-1-yl)pyrimido[4,5-d]pyrimidine-4(1H)-one] |
| > 500 nM | > 500 nM | CN1CNc2nc(N)nc(N3CCC[C@H]3c3nc4cccc(Cl)c4c(=O)n3-c3cccnc3)c2C1=O [Example 56, (S)-7-amino-5-(2-(5-chloro-4-oxo-3-(pyridine-3-yl)-3,4-dihydroquinazoline-2-yl)pyrrolidine-1-yl)-3-methyl-2,3-dihydropyrimido[4,5-d]pyrimidine-4(1H)-one] |
| > 500 nM | > 500 nM | Cc1cccc(-n2c([C@@H]3CCCN3c3ncnc4[nH]cnc(=O)c34)nc3cccc(Cl)c3c2=O)c1 [Example 78, (S)-5-(2-(5-chloro-4-oxo-3-(m-tolyl)-3,4-dihydroquinazoline-2-yl)pyrrolidine-1-yl)pyrimido[4,5-d]pyrimidine-4(1H)-one] |
| < 10 nM | 10 to 500 nM | CN1CNc2ncnc(N3CCC[C@H]3c3cc4cccc(Cl)c4c(=O)n3-c3ccccc3)c2C1=O [Example 46, (S)-5-(2-(8-chloro-1-oxo-2-phenyl-1,2-dihydroisoquinoline-3-yl)pyrrolidine-1-yl)-3-methyl-2,3-dihydropyrimido[4,5-d]pyrimidine-4(1H)-one] |
| > 500 nM | > 500 nM | O=c1nc[nH]c2ncnc(N3CCC[C@H]3c3nc4cccc(Cl)c4c(=O)n3-c3ccccc3)c12 [Example 74, (S)-5-(2-(5-chloro-4-oxo-3-phenyl-3,4-dihydroquinazoline-2-yl)pyrrolidine-1-yl)pyrimido[4,5-d]pyrimidine-4(1H)-one] |
| > 500 nM | > 500 nM | CN1CNc2ncnc(N3CCC[C@H]3c3nc4cccc(Cl)c4c(=O)n3-c3cccnc3)c2C1=O [Example 43, (S)-5-(2-(5-chloro-4-oxo-3-(pyridine-3-yl)-3,4-dihydroquinazoline-2-yl)pyrrolidine-1-yl)-3-methyl-2,3-dihydropyrimido[4,5-d]pyrimidine-4(1H)-one] |
| 10 to 500 nM | > 500 nM | O=c1nc[nH]c2ncnc(N3CCC[C@H]3c3cc4cccc(Cl)c4c(=O)n3-c3cccnc3)c12 [Example 75, (S)-5-(2-(8-chloro-1-oxo-2-(pyridine-3-yl)-1,2-dihydroisoquinoline-3-yl)pyrrolidine-1-yl)pyrimido[4,5-d]pyrimidine-4(1H)-one] |
| > 500 nM | > 500 nM | Nc1nc(N2CCC[C@H]2c2nc3cccc(Cl)c3c(=O)n2-c2cccnc2)c2c(=O)nc[nH]c2n1 [Example 91, (S)-7-amino-5-(2-(5-chloro-4-oxo-3-(pyridine-3-yl)-3,4-dihydroquinazoline-2-yl)pyrrolidine-1-yl)pyrimido[4,5-d]pyrimidine-4(1H)-one] |
